In patent publication US4029688A, “Carbamic pesticidal compositions” (priority 1974, dated 1977):
≈ marks a conversion by molar mass, not a printed value.

What was measured:
[1] = tested on: bean aphid (Aphis fabae Scop.); experiment: Bean Aphid Foliage Spray Test; format: in vivo; settings: Aphis fabae, foliar; Table II, side by side comparison; read-out: Aphids LD50
Protocol: (§1) Suspensions of the test compounds were prepared by dissolving one gram of compound in 50 milliliters of acetone in which had been dissolved 0.1 gram (10 percent of the weight of compound) of an alkylphenoxy polyethoxyethanol surfactant, as an emulsifying or dispersing agent. The resulting solution was mixed into 150 milliliters of water to give roughly 200 milliliters of a suspension containing the compound in finely divided form. The thus-prepared stock suspension contained 0.5 percent by weight of compound. The test concentrations in parts per million by weight employed in the tests described hereinbelow were obtained by appropriate dilutions of the stock suspension with water. The test procedures were as follows:
Adults and nymphal stages of the bean aphid (Aphis fabae Scop.) reared on potted dwarf nasturtium plants at 65°-70° F. and 50-70 percent relative humidity, constituted the test insects. For testing purposes, the number of aphids per pot was standardized to 100-150 by trimming plants containing excess aphids.
The test compounds were formulated by diluting the stock suspension with water to give a suspension containing 500 parts of test compound per million parts of final formulation.
The potted plants (one pot per compound tested) infested with 100-150 aphids, were placed on a revolving turntable and sprayed with 100-110 milliliters of test compound formulation by use of a DeVilbiss spray gun set at 40 psig. air pressure. This application, which lasted 25 seconds, was sufficient to wet the plants to run-off. As a control, 100-110 milliliters of a water-acetone-emulsifier solution containing no test compound were also sprayed on infested plants. After spraying, the pots were placed on their sides on a sheet of white standard mimeograph paper which had been previously ruled to facilitate counting. Temperature and humidity in the test room during the 24 hour holding period were 65°-70° F. and 50-70 percent, respectively. Aphids which fell onto the paper and were unable to remain standing after being uprighted were considered dead. Aphids remaining on the plants were observed closely for movement and those which were unable to move the length of the body upon stimulation by prodding were considered dead. Percent mortality was recorded for various concentration levels.
(§2) In the tests described above, the pesticidal activity of the compounds against aphid, mite, Southern Armyworm, Bean Beetle, house fly and nematode was rated as follows:
(§3) Comparison tests were conducted to assess the biological and chemical properties of certain representative species of the claimed invention in relation to their corresponding N-methyl carbamate compositions. The test procedures described above were employed in these experiments in order to determine the LD50 (number of parts per million of active ingredients required to achieve fifty percent mortality of the insects tested) for each of the compositions tested. In the case of the aphid and mite tests a side by side comparison was made of the N-methyl carbamate composition versus the corresponding perhalomethylsulfenyl derivative.

[2] = tested on: two-spotted mite (Tetranychus urticae Koch); experiment: Mite Foliage Spray Test; format: in vivo; settings: Tetranychus urticae, foliar; Table II, side by side comparison; read-out: Mites Spray LD50
Protocol: as §1
Adults and numphal stages of the two-spotted mite (Tetranychus urticae Koch), reared on Tendergreen bean plants at 80±5 percent relative humidity, were the test organisms. Infested leaves from a stock culture were placed on the primary leaves of two bean plants six to eight inches in height, growing in a 21/2 inch clay pot. 150 -200 Mites, a sufficient number for testing, transferred from the excised leaves to the fresh plants in a period of twenty-four hours. Following the twenty-four hour transfer period, the excised leaves were removed from the infested plants. The test compounds were formulated by diluting the stock suspension with water to give a suspension containing 500 parts of test compound per million parts of final formulation. The potted plants (one pot per compound) were placed on a revolving turntable and sprayed with 100-110 milliliters of test compound formulation by use of a DeVilbiss spray gun set at 40 psig. air pressure. This application, which lasted 25 seconds, was sufficient to wet the plants to run-off. As a control, 100-110 milliliters of a water solution containing acetone and emulsifier in the same concentrations as the test compound formulation, but containing no test compound, were also sprayed on infested plants. The sprayed plants were held at 80±5 percent relative humidity for six days, after which a mortality count of motile forms was made. Microscopic examination for motile forms was made on the leaves of the test plants. Any individual which was capable of locomotion upon prodding was considered living.
as §2, §3

[3] = tested on: southern armyworm (Prodenia eridania, (Cram.)); experiment: Southern Armyworm Leaf Spray Test; format: in vivo; settings: Spodoptera eridania; Table II; read-out: Armyworm LD50
Protocol: as §1
Larvae of the southern armyworm (Prodenia eridania, (Cram.)), reared on Tendergreen bean plants at a temperature of 80°±5° F. and a relative humidity of 50±5 percent, constituted the test insects.
The test compounds were formulated by diluting the stock suspension with water to give a suspension containing 500 parts of test compound per million parts of final formulation. Potted Tendergreen bean plants of standard height and age were placed on a revolving turntable and sprayed with 100-110 milliliters of test compound formulation by use of a DeVilbiss spray gun set at 10 psig air pressure. This application, which lasted 25 seconds, was sufficient to wet plants to run-off. As a control, 100-110 milliliters of a water-acetone-emulsifier solution containing no test compound were also sprayed on infested plants. When dry, the paired leaves were separated and each one was placed in a 9 centimeter Petri dish lined with moistened filter paper. Five randomly selected larvae were introduced into each dish and the dishes were closed. The closed dishes were labeled and held at 80-85° F. for three days. Although the larvae could easily consume the whole leaf within twenty-four hours, no more food was added. Larvae which were unable to move the length of the body, even upon stimulation by prodding, were considered dead. Percent mortality was recorded for various concentration levels.
as §2, §3

[4] = tested on: Mexican bean beetle (Epilachna varivestis, Muls.); experiment: Mexican Bean Beetle Leaf Spray Test; format: in vivo; settings: Epilachna varivestis; Table II; read-out: Beetle LD50
Protocol: as §1
Fourth instar larvae of the Mexican bean beetle (Epilachna varivestis, Muls.), reared on Tendergreen bean plants at a temperature of 80°±5° F. and 50±5 percent relative humidity, were the test insects.
The test compounds were formulated by diluting the stock suspension with water to give a suspension containing 500 parts of test compound per million parts of final formulation. Potted Tendergreen bean plants of standard height and age were placed on a revolving turntable and sprayed with 100-110 milliliters of test compound formulation by use of a DeVilbiss spray gun set at 10 psig air pressure. This application, which lasted 25 seconds, was sufficient to wet plants to run-off. As a control, 100-110 milliliters of a water-acetone-emulsifier solution containing no test compound were also sprayed on infested plants. When dry, the paired leaves were separated and each was placed in a 9 centimeter Petri dish lined with moistened filter paper. Five randomly selected larvae were introduced into each dish, and the dishes were closed. The closed dishes were labeled and held at a temperature of 80°±5° F. for three days. Although the larvae could easily consume the leaf within 24 to 48 hours, no more food was added. Larvae which were unable to move the length of the body, even upon stimulation, were considered dead.
as §2, §3

[5] = tested on: house flies (Musca domestica, L.); experiment: Fly Bait Test; format: in vivo; settings: Musca domestica; Table II; read-out: Housefly LD50
Protocol: as §1
Four to six day old adult house flies (Musca domestica, L.), reared according to the specifications of the Chemical Specialties Manufacturing Association (Blue Book, McNair-Dorland Co., N. Y. 1954; pages 243-244, 261) under controlled conditions of 80°±5° F. and 50±5 percent relative humidity, were the test insects. The flies were immobilized by anesthetizing with carbon dioxide and twenty-five immobilized individuals, males and females, were transferred to a cage consisting of a standard food strainer about five inches in diameter which was inverted over a wrapping-paper-covered surface. The test compounds were formulated by diluting the stock suspension with a 10 percent (by weight) sugar solution to give a suspension containing 500 parts of test compound per million parts of final formulation, by weight. Ten milliliters of the test formulation were added to a souffle cup containing a one-inch square of an absorbent cotton pad. This bait cup was introduced and centered on the blotting paper under the food strainer prior to admitting the anesthetized flies. The caged flies were allowed to feed on the bait for twenty-four hours, at a temperature of 80°±5° F. and the relative humidity of 50±5 percent.
as §2, §3

[6] = Peroral toxicity to mammals (rat); settings: in vivo, po, Table II
Protocol: Certain of these compositions were also evaluated to determine their peroral toxicity to mammals. The animal selected for this experiment was the rat. The test results obtained are expressed in terms of the number of milligrams of composition per kilogram of weight of the animal required to achieve a mortality rate of 50 percent (LD50).

Chemical stability = format: physicochemical; settings: Table II

| SMILES | LC50 [1] [µg/mL] | LC50 [2] [µg/mL] | LC50 [3] [µg/mL] | LC50 [4] [µg/mL] | LC50 [5] [µg/mL] | LD50 [6] [mg/kg] | Stability (Chemical stability) |
| --- | --- | --- | --- | --- | --- | --- | --- |
| CNC(=O)ON=CC(C)(C)[N+](=O)[O-] [drawing 22 R=H, X=NO2, reference compound] | 6 (≈ 31.7 µM) | 32 (≈ 169 µM) | 55 (≈ 291 µM) | 80 (≈ 423 µM) | 3 (≈ 15.9 µM) | 4 | unstable |
| CNC(=O)ON=CC(C)(C)C#N [drawing 22 R=H, X=CN, reference compound] | 12 (≈ 70.9 µM) | 40 (≈ 236 µM) | 55 (≈ 325 µM) | 65 (≈ 384 µM) | 3 (≈ 17.7 µM) | 9.5 | unstable |
| CN(SC(F)(F)F)C(=O)ON=CC(C)(C)C#N [drawing 22 R=SCF3, X=CN, 2-Methyl-2-cyanopropionaldehyde O-(N-methyl-N-trifluoromethanesulfenylcarbamoyl)oxime] | 38 (≈ 141 µM) | 90 (≈ 334 µM) | 300 (≈ 1110 µM) | 40 (≈ 149 µM) | 14 (≈ 52 µM) |  | stable |
| CNC(=O)ON=C(C)SCCC#N [drawing 23 R=H, reference compound] | 8 (≈ 39.8 µM) | 8 (≈ 39.8 µM) | 5 (≈ 24.8 µM) | 25 (≈ 124 µM) | 2 (≈ 9.94 µM) | 7.7 | stable |
